Experimental data: PubChem BioAssay (NCI)
“And” between values parts separate entries of the source, which are not always exact repeats. Equal entries are not always repeated.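 Step 1: Grow cells in 96-well plates. Step 2: Expose to compound for 48 hours at 5 concentrations. Step 3: Interpolate endpoints linearly; if unreached, use highest concentration. Abbreviation: GI50, concentration required for 50% inhibition of growth. TGI: total growth inhibition.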

Legend:
Test in all cases: NCI-60 cell line screen, 48 h
[1] = tested on: ACHN renal
[2] = tested on: NCI-H460 lung
[3] = tested on: NCI-H23 lung
[4] = tested on: UACC-257 melanoma
[5] = tested on: UACC-62 melanoma
[6] = tested on: OVCAR-8 ovarian
[7] = tested on: COLO 205 colon
[8] = tested on: SF-539 CNS
[9] = tested on: OVCAR-4 ovarian
[10] = tested on: CCRF-CEM leukemia

Compound	TGI [1]	TGI [2]	TGI [3]	TGI [4]	TGI [5]	TGI [6]	TGI [7]	TGI [8]	TGI [9]	TGI [10]	GI50 [2]	GI50 [3]	GI50 [4]	GI50 [5]	GI50 [6]	GI50 [10]	GI50 [7]	GI50 [8]	GI50 [9]
Cc1cc(=O)[nH]c(S(=O)(=O)NC(=S)Nc2ccc(Br)cc2)n1	> 100 µM	> 100 µM	> 100 µM	> 100 µM	> 100 µM	> 100 µM	> 100 µM	> 100 µM	> 100 µM	–	–	–	–	–	–	–	–	–	–
COC(=O)C1CC(C=O)=C(SC)N1 (stereo not given)	> 50 µM	> 50 µM	> 50 µM	> 50 µM	> 50 µM	> 50 µM	> 50 µM	–	> 50 µM	–	–	–	–	–	–	–	–	–	–
C=C1C(=O)OC2C1CC1OC2C(C)CCC/C(C)=C\CCC1(C)O (stereo not given)	–	60.9 µM	29 µM	72.8 µM	26.4 µM	31.4 µM	58.1 µM	48.7 µM	56.6 µM	22.2 µM	–	–	–	–	–	–	–	–	–
CCCCN=C(OC1C=CCCC1)SC (stereo not given)	> 100 µM	–	> 100 µM	> 100 µM	> 100 µM	> 100 µM	> 100 µM	–	> 100 µM	> 100 µM	–	–	–	–	–	–	–	–	–
OCC(CO)CC1COc2ccccc2O1 (stereo not given)	> 10 µM	> 10 µM	> 10 µM	–	> 10 µM	> 10 µM	> 10 µM	> 10 µM	> 10 µM	> 10 µM	–	–	–	–	–	–	–	–	–
Cn1c(=O)c2[nH]cnc2n(C)c1=O	> 100 µM	> 100 µM	> 100 µM	> 100 µM	–	> 100 µM	> 100 µM	–	–	> 100 µM	–	–	–	–	–	–	–	–	–
CC1Oc2c(c(O)cc3oc(=O)cc(-c4ccccc4)c23)C(=O)C1C (stereo not given)	> 100 µM	> 100 µM	> 100 µM	–	> 100 µM	> 100 µM	> 100 µM	> 100 µM	–	> 100 µM	–	–	–	–	–	–	–	–	–
CN(C)CCCN1C(=O)N(CCCN(C)C)c2c3cc(O)ccc3nc3c([N+](=O)[O-])ccc1c23	62.6 µM	70.4 µM	48 µM	> 100 µM	27.3 µM	37.2 µM	27.5 µM	35.5 µM	17.8 µM	–	–	–	–	–	–	–	–	–	–
CC(C)=CCC/C(C)=C/CCC1(C)C2COC(=O)C21 (stereo not given)	> 100 µM	> 100 µM	> 100 µM	> 100 µM	> 100 µM	–	> 100 µM	–	> 100 µM	80.8 µM	–	–	–	–	–	–	–	–	–
OCC1=C[C@@](COCc2ccccc2)(OCc2ccccc2)[C@@H](OCc2ccccc2)[C@@H]1OCc1ccccc1	> 100 µM	53.1 µM	38.8 µM	67.6 µM	39 µM	> 100 µM	23.9 µM	–	73.3 µM	11 µM	–	–	–	–	–	–	–	–	–
CN1C(C(=O)Nc2ccccn2)=C(O)c2ccccc2S1(=O)=O	> 100 µM	–	> 100 µM	> 100 µM	> 100 µM	> 100 µM	> 100 µM	> 100 µM	> 100 µM	> 100 µM	–	–	–	–	–	–	–	–	–
CNc1ccc([N+](=O)[O-])cc1C(=O)N1CCC[C@H]1CO	> 100 µM	> 100 µM	> 100 µM	> 100 µM	> 100 µM	> 100 µM	> 100 µM	–	> 100 µM	> 100 µM	–	–	–	–	–	–	–	–	–
C[C@@H](CC(O)C(O)C(C)(C)O)C1CCC23CC12CCC1[C@@]2(C)CCC(=O)C(C)(C)C2CC(OC2OC(CO)C(O)C(O)C2O)[C@]13C (stereo not given in full)	> 10 µM	> 10 µM	> 10 µM	–	> 10 µM	> 10 µM	> 10 µM	> 10 µM	> 10 µM	> 10 µM	–	–	–	–	–	–	–	–	–
COc1ccc(/C=C(\C#N)c2nc(-c3cc4ccccc4oc3=O)cs2)cc1	42.2 µM	57.1 µM	–	> 100 µM	49.3 µM	44.4 µM	> 100 µM	54.9 µM	58.8 µM	> 100 µM	–	–	–	–	–	–	–	–	–
COc1ccc(CNc2cnc3cc(N)ccc3n2)cc1OC	> 100 µM	> 100 µM	–	> 100 µM	–	> 100 µM	> 100 µM	> 100 µM	> 100 µM	> 100 µM	–	–	–	–	–	–	–	–	–
O.O=[Se](=O)(O)O.[NH-]C1CCCCC1[NH-].[Pt+2] (stereo not given)	–	38.7 µM	> 94.9 µM	> 100 µM	26.4 µM	> 100 µM	67.8 µM	> 100 µM	> 100 µM	> 100 µM	3.77 µM	10.9 µM	46.4 µM	4.25 µM	7.55 µM	9.8 µM	5.82 µM	25.3 µM	11.6 µM
O=C1C(=O)C(CCCO)(CCCO)CCCCCCCCC1(CCCO)CCCO	> 100 µM	> 100 µM	> 100 µM	> 100 µM	> 100 µM	> 100 µM	> 100 µM	> 100 µM	> 100 µM	–	–	–	–	–	–	–	–	–	–
CCCCC[C@@H]1OC(=O)[C@@]2(CC3c4ccccc4C2c2ccccc23)[C@H]1C(=O)OC	> 100 µM	> 100 µM	> 100 µM	86.4 µM	> 100 µM	> 100 µM	30.5 µM	–	> 100 µM	> 100 µM	–	–	–	–	–	–	–	–	–
COc1ccc(/C(Cl)=C(\C=O)c2ccc(Cl)cc2)cc1	21.2 µM	> 100 µM	17.1 µM	77.4 µM	32.8 µM	45.6 µM	–	–	> 100 µM	11.4 µM	–	–	–	–	–	–	–	–	–
CC(=O)Nc1oc(C)nc1C#N	> 100 µM	–	–	> 100 µM	> 100 µM	> 100 µM	–	–	> 100 µM	> 100 µM	–	–	–	–	–	–	–	–	–
Nc1ncnc2c(C3OC(CO)C(O)C3O)c[nH]c12 (stereo not given)	–	0.048 µM and 0.0128 µM	0.0792 µM and 0.0756 µM	0.276 µM and 0.382 µM	0.0496 µM and 0.0377 µM	0.0845 µM and 0.771 µM	–	0.0546 µM and 0.0374 µM	0.705 µM and 0.741 µM	0.0988 µM and < 0.0135 µM	–	< 0.0104 µM	< 0.0155 µM	0.0101 µM	–	–	0.0193 µM	< 0.0117 µM	–
Cn1cnc([N+](=O)[O-])c1Sc1nncc2[nH]cnc12	> 100 µM	–	> 100 µM	> 100 µM	> 100 µM	> 100 µM	> 100 µM	> 100 µM	> 100 µM	> 100 µM	–	–	–	–	–	–	–	–	–
